In ChEMBL document CHEMBL4418910, “Methods for categorising cancer such as breast cancer” (2018):

Columns and labels:
[1] = molecular target: T1, Serine/threonine-protein kinase LMTK3 (Homo sapiens, UniProt Q96Q04); experiment: Inhibition of N-terminal GST tag LMTK3 kinase domain (133 to 415 amino acids) (unknown origin) expressed in insect cells incubated for 120 mins by […] fluorescent detection based CisBio KinEASE STK-S1 kit based assay
T1 sequence (Q96Q04 whole entry): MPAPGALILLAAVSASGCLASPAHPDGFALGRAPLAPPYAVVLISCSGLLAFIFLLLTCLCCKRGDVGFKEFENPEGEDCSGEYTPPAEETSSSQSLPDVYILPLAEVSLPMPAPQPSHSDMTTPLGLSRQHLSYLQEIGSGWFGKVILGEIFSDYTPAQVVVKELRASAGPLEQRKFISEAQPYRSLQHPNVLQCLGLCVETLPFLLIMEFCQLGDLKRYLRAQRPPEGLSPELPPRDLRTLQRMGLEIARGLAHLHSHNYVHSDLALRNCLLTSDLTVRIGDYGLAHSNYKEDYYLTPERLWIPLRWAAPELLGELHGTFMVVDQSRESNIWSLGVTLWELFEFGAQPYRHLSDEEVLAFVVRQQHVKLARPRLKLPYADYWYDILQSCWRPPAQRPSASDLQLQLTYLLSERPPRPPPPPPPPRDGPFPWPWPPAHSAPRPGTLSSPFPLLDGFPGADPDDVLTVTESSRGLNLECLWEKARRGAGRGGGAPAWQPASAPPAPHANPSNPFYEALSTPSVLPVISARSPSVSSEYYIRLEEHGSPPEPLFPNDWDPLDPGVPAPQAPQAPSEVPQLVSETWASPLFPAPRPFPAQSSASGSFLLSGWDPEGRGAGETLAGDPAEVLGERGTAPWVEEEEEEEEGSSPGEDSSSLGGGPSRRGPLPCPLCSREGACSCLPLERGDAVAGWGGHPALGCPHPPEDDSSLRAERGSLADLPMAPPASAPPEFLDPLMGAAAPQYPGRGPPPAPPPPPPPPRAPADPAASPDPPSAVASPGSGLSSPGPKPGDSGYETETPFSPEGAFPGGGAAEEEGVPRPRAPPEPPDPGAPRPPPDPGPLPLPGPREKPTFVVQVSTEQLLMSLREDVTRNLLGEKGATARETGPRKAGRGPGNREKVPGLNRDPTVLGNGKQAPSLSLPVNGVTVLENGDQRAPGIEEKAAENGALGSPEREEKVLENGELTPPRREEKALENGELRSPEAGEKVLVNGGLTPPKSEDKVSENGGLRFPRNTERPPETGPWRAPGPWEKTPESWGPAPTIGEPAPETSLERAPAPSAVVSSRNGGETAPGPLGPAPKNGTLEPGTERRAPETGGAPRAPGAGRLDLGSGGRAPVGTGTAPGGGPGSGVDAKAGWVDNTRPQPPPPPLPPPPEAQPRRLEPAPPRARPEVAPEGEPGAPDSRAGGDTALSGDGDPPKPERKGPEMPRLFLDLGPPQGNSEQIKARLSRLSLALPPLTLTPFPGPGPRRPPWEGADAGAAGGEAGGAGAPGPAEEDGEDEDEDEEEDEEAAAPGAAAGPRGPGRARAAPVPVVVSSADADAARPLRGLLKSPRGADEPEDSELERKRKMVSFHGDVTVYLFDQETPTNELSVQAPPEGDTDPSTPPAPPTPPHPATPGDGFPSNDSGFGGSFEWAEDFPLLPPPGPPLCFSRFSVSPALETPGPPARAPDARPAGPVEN

[2] = molecular target: T2, Serine/threonine-protein kinase LMTK3 (Homo sapiens) (UniProt Q96Q04); experiment: Inhibition of N-terminal GST tag LMTK3 kinase domain (133 to 415 amino acids) (unknown origin) expressed in insect cells incubated for 120 mins by […] fluorescent detection based CisBio KinEASE STK-S1 kit based assay relative to untreated control
T2 sequence (whole entry): T1 sequence (Q96Q04 whole entry)

IC50 [1] | Compound | inhibition [2]
0.117 nM | CCCCCCOC(=O)[C@]1(O)C[C@H]2O[C@]1(C)n1c3ccccc3c3c4c(c5c6ccccc6n2c5c31)C(=O)NC4 | 98.7%
 | COC(=O)[C@@]1(O)C[C@H]2O[C@]1(C)n1c3ccccc3c3c4c(c5c6ccccc6n2c5c31)C(=O)NC4 | 98.9%
0.132 nM | CN(C)CCCn1cc(C2=C(c3c[nH]c4ccccc34)C(=O)NC2=O)c2ccccc21 [GF-109203] | 108%
 | CN[C@@H]1C[C@H]2O[C@@](C)([C@@H]1OC)n1c3ccccc3c3c4c(c5c6ccccc6n2c5c31)C(=O)NC4 | 109%
